Measured values reported in patent US6603046B1, “Bis-aromatic a,β-unsaturated ketones” (Lica Pharmaceuticals A/S, priority 1992, dated 2003).

Experiments:
human lymphocytes = test: Lymphocyte Proliferation Assay, 3H-thymidine incorporation (Example 13); settings: Homo sapiens, Lymphocyte, read-out: inhibition of lymphocytes (lower figure)
P. falciparum = P. falciparum growth in vitro (Table 14.1, strain not stated); format: cell-based; settings: Plasmodium falciparum, read-out: inhibition of malaria parasites (middle figure) (converted); for inhibition at 0.5 µg/mL: 0.5 μg/ml; for inhibition at 1 µg/mL: 1 μg/ml; for inhibition at 5 µg/mL: 5 μg/ml; for inhibition at 10 µg/mL: 10 μg/ml
Experimental: The P. falciparum experimental setup was as described in Example 15.
Testing of the effect of drugs and serum on the in vitro growth of the parasites. The experiments in which compounds were tested for their ability to inhibit parasite growth were performed by a modification of the method originally described by Jensen et al. (1982). Fifty μl of parasitized erythrocytes (parasitemia approximately 1%) in a concentration of 5×10^8/ml and 50 μl of RPMI medium containing different concentrations of the test compound was added to each well of a 96 well flat-bottomed microtiter plate (Nunc). The cultures were then incubated for 48 hours, 24 hours before termination of the culture adding 20 μl of 3-H-hypoxanthine (40 uCi/ml) (New England Nuclear, Boston, Mass., USA) was added to each well. The cultures were then harvested onto glass fiber filters using a Skatron cell harvester (Skatron, Lierbyen, Norway), and the incorporation of 3-H-hypoxanthine into the DNA of dividing parasites was determined by liquid scintillation spectrometry.

L. major promastigotes = L. major promastigotes from 4-days cultures, 3H-thymidine uptake (Examples 5, 14); format: cell-based, Leishmania major; settings: Leishmania major, Table 14.1, read-out: percentage inhibition of promastigotes (upper figure); for inhibition at 0.5 µg/mL: 0.5 μg/ml; for inhibition at 1 µg/mL: 1 μg/ml; for inhibition at 5 µg/mL: 5 μg/ml; for inhibition at 10 µg/mL: 10 μg/ml
Experimental: Parasite cultures. The same parasite culture as described in Example 4. Promastigotes were harvested on day 4 of the culture and used for the parasiticidal assay.
Effect on promastigotes. […] Following incubation, […] of ^3H-thymidine was added to each well and further incubated for 18 hrs. Promastigotes were then harvested on filter paper by means of a cell harvester (Skatron, Lierbyen, Norway), extensively washed with distilled water and counted in a scintillation counter (Minaxi Ti-Carb 4000, United Technologies, Packard, USA).
L. major promastigotes. The L. major promastigotes were prepared as described in Example 4 and harvested after 4 days.

[1] = tested on: chloroquine resistant P. falciparum DD2 strain; test: In vitro growth of P. falciparum DD2, 3H-hypoxanthine uptake (Example 15); format: cell-based, Plasmodium falciparum; settings: title: percentage inhibition of 3H-hypoxanthine uptake
P. yoelii strain YM = P. yoelii strain YM infection in mice, parasitemia and mortality (Example 16); format: in vivo, BALB/c mice; settings: Table 16.11; for % parasitemia (mean ± SEM): 3 h after infection, D + 1 to D + 5
[2] = D + 6, i.p. 20 mg/kg twice daily
[3] = D + 6, i.p. 30 mg/kg twice daily
[4] = D + 8, i.p. 20 mg/kg twice daily
[5] = D + 8, i.p. 30 mg/kg twice daily
[6] = D + 10, i.p. 20 mg/kg twice daily
[7] = D + 10, i.p. 30 mg/kg twice daily to D + 5
[8] = D + 12, i.p. 20 mg/kg twice daily
[9] = D + 14, i.p. 20 mg/kg twice daily to D + 5
[10] = D + 14, i.p. 20 mg/kg twice daily
[11] = D + 16, i.p. 20 mg/kg twice daily to D + 5
[12] = D + 16, i.p. 20 mg/kg twice daily

COc1ccc(/C=C/C(=O)c2ccccc2O)c(OC)c1
inhibition at 0.5 µg/mL (human lymphocytes): 3% | inhibition at 1 µg/mL (human lymphocytes): 5.5% | inhibition at 5 µg/mL (human lymphocytes): 2.6% | inhibition at 10 µg/mL (human lymphocytes): 0% | inhibition at 0.5 µg/mL (P. falciparum): 0% | inhibition at 1 µg/mL (P. falciparum): 0.8% | inhibition at 5 µg/mL (P. falciparum): 23.4% | inhibition at 10 µg/mL (P. falciparum): 67.9% | inhibition at 0.5 µg/mL (L. major promastigotes): 19.2 ± 18.1% | inhibition at 1 µg/mL (L. major promastigotes): 37.6 ± 18.3% | inhibition at 5 µg/mL (L. major promastigotes): 89.4 ± 13.8% | inhibition at 10 µg/mL (L. major promastigotes): 98.3 ± 1%

COc1cccc(OC)c1/C=C/C(=O)c1ccc(O)cc1
inhibition at 0.5 µg/mL (human lymphocytes): 0% | inhibition at 1 µg/mL (human lymphocytes): 3.3% | inhibition at 5 µg/mL (human lymphocytes): 2.3% | inhibition at 10 µg/mL (human lymphocytes): 4.4% | inhibition at 0.5 µg/mL (P. falciparum): 0% | inhibition at 1 µg/mL (P. falciparum): 16.6% | inhibition at 5 µg/mL (P. falciparum): 71% | inhibition at 10 µg/mL (P. falciparum): 90.6% | inhibition at 0.5 µg/mL (L. major promastigotes): 11.4 ± 9.2% | inhibition at 1 µg/mL (L. major promastigotes): 21.5 ± 10.6% | inhibition at 5 µg/mL (L. major promastigotes): 77.5 ± 4.3% | inhibition at 10 µg/mL (L. major promastigotes): 93.1 ± 4.6%

COc1cccc(/C=C/C(=O)c2ccc(O)cc2)c1OC [2,3-Dimethoxy-4′-hydroxychalcone]
Growth in % of control (mean ± SEM) ([1]; 0.5 μg/ml): 46 ± 22% | Growth in % of control (mean ± SEM) ([1]; 1 μg/ml): 54.4 ± 22.2% | Growth in % of control (mean ± SEM) ([1]; 5 μg/ml): 53.5 ± 20.1% | Growth in % of control (mean ± SEM) ([1]; 10 μg/ml): 67.6 ± 12.4%

CCOc1ccc(/C=C/C(=O)c2ccccc2O)c(OCC)c1 [2,4-Diethoxy-2′-hydroxychalcone]
Growth in % of control (mean ± SEM) ([1]; 0.5 μg/ml): 23.1 ± 8.3% | Growth in % of control (mean ± SEM) ([1]; 1 μg/ml): 20.8 ± 8.8% | Growth in % of control (mean ± SEM) ([1]; 5 μg/ml): 33.7 ± 8.2% | Growth in % of control (mean ± SEM) ([1]; 10 μg/ml): 55.3 ± 7.4%

CCOc1ccc(/C=C/C(=O)c2ccc(O)cc2)c(OCC)c1 [2,4-Diethoxy-4′-hydroxychalcone]
Growth in % of control (mean ± SEM) ([1]; 0.5 μg/ml): 14.5 ± 7.2% | Growth in % of control (mean ± SEM) ([1]; 1 μg/ml): 9 ± 7% | Growth in % of control (mean ± SEM) ([1]; 5 μg/ml): 54.2 ± 10.2% | Growth in % of control (mean ± SEM) ([1]; 10 μg/ml): 86.8 ± 7.3%

C=CCOc1ccc(C(=O)/C=C/c2ccc(OC)cc2OC)cc1 [2,4-Dimethoxy-4′-allyloxychalcone, 2,4-dimethoxy-4′-prop-2-enyloxychalcone]
% parasitemia (mean ± SEM) (P. yoelii strain YM; [2]): 0.4 ± 0.2% | % parasitemia (mean ± SEM) (P. yoelii strain YM; [3]): 37.4 ± 0.9% | % parasitemia (mean ± SEM) (P. yoelii strain YM; D + 6, i.p. 40 mg/kg twice daily): 55.8 ± 1.5% | % parasitemia (mean ± SEM) (P. yoelii strain YM; [4]): 0.8 ± 0.2% | % parasitemia (mean ± SEM) (P. yoelii strain YM; [5]): 67.2 ± 0.9% | mortality (no. of dead mice/total no. of tested mice) (P. yoelii strain YM; D + 8, i.p. 40 mg/kg twice daily to D + 5): (2/5) | % parasitemia (mean ± SEM) (P. yoelii strain YM; D + 8, i.p. 40 mg/kg twice daily): 83 ± 2.1% | % parasitemia (mean ± SEM) (P. yoelii strain YM; [6]): 14.3 ± 4.0% | mortality (no. of dead mice/total no. of tested mice) (P. yoelii strain YM; [7]): (5/5) | mortality (no. of dead mice/total no. of tested mice) (P. yoelii strain YM; D + 10, i.p. 40 mg/kg twice daily to D + 5): (5/5) | % parasitemia (mean ± SEM) (P. yoelii strain YM; [8]): 32.4 ± 4.0% | mortality (no. of dead mice/total no. of tested mice) (P. yoelii strain YM; [9]): 3/5 | % parasitemia (mean ± SEM) (P. yoelii strain YM; [10]): 7% | mortality (no. of dead mice/total no. of tested mice) (P. yoelii strain YM; [11]): 3/5 | % parasitemia (mean ± SEM) (P. yoelii strain YM; [12]): 0% | Growth in % of control (mean ± SEM) ([1]; 0.5 μg/ml): 29.1 ± 10.8% | Growth in % of control (mean ± SEM) ([1]; 1 μg/ml): 23.6 ± 11.2% | Growth in % of control (mean ± SEM) ([1]; 5 μg/ml): 44.3 ± 10.5% | Growth in % of control (mean ± SEM) ([1]; 10 μg/ml): 75.2 ± 7.8%

COc1ccc(/C=C/C(=O)c2ccc(O)cc2)c(OC)c1 [2,4-Dimethoxy-4′-hydroxychalcone, 2,4-dimethoxy-4′-hydroxychalcone]
% parasitemia (mean ± SEM) (P. yoelii strain YM; [2]): 4.8 ± 1.5% | % parasitemia (mean ± SEM) (P. yoelii strain YM; [3]): 46.4 ± 2.1% | mortality (no. of dead mice/total no. of tested mice) (P. yoelii strain YM; D + 6, i.p. 40 mg/kg twice daily to D + 5): (5/5) | % parasitemia (mean ± SEM) (P. yoelii strain YM; [4]): 12.4 ± 2.4% | mortality (no. of dead mice/total no. of tested mice) (P. yoelii strain YM; D + 8, i.p. 30 mg/kg twice daily to D + 5): (1/5) | % parasitemia (mean ± SEM) (P. yoelii strain YM; [5]): 70.8 ± 3.5% | % parasitemia (mean ± SEM) (P. yoelii strain YM; [6]): 58.6 ± 14% | mortality (no. of dead mice/total no. of tested mice) (P. yoelii strain YM; [7]): (5/5) | mortality (no. of dead mice/total no. of tested mice) (P. yoelii strain YM; D + 12, i.p. 20 mg/kg twice daily to D + 5): 3/5 | % parasitemia (mean ± SEM) (P. yoelii strain YM; [8]): 25% | mortality (no. of dead mice/total no. of tested mice) (P. yoelii strain YM; [9]): 3/5 | % parasitemia (mean ± SEM) (P. yoelii strain YM; [10]): 6% | mortality (no. of dead mice/total no. of tested mice) (P. yoelii strain YM; [11]): 3/5 | % parasitemia (mean ± SEM) (P. yoelii strain YM; [12]): 0% | Growth in % of control (mean ± SEM) ([1]; 0.5 μg/ml): 18.6 ± 7.2% | Growth in % of control (mean ± SEM) ([1]; 1 μg/ml): 21.8 ± 7.3% | Growth in % of control (mean ± SEM) ([1]; 5 μg/ml): 46.8 ± 6.6% | Growth in % of control (mean ± SEM) ([1]; 10 μg/ml): 68.0 ± 4.7%

COCOc1ccc(C(=O)/C=C/c2ccc(OC)cc2OC)cc1 [2,4-Dimethoxy-4′-methoxymethoxychalcone, 2,4-dimethoxy-4′-methoxymethoxychalcone]
Growth in % of control (mean ± SEM) ([1]; 0.5 μg/ml): 14.0 ± 6.8% | Growth in % of control (mean ± SEM) ([1]; 1 μg/ml): 0 ± 10.9% | Growth in % of control (mean ± SEM) ([1]; 5 μg/ml): 0 ± 10.2% | Growth in % of control (mean ± SEM) ([1]; 10 μg/ml): 40.8 ± 9.3%
